Where “and” joins values, the source holds several entries; their conditions need not be identical. Equal entries are not always repeated.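 Briefly, cells in 96-well plates were exposed to five compound concentrations for 48 h, and endpoints were estimated by linear interpolation. GI50 = concentration required for 50% inhibition of growth. TGI is the concentration that stops growth completely.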
Key:
Experiment in all cases: NCI tumour cell line growth inhibition, 48 h
[1] = system: PC-3 prostate
[2] = system: SF-539 CNS
[3] = system: M14 melanoma
[4] = system: NCI-H23 lung
[5] = system: OVCAR-4 ovarian
[6] = system: UACC-257 melanoma
[7] = system: K-562 leukemia
[8] = system: U251 CNS
[9] = system: MOLT-4 leukemia
[10] = system: RXF 393 renal
[11] = system: UACC-62 melanoma
[12] = system: DLD-1 colon
[13] = system: ACHN renal
[14] = system: P388/ADR leukemia
[15] = system: HOP-18 NSCLC
[16] = system: OVCAR-3 ovarian

**Q.** What does the source list for `COc1ccc2c(c1)c1c(C)c3cnccc3c(C)c1n2CCCN`?
**A.** TGI [1]: 302 nM; GI50 [2]: 175 nM; TGI [2]: 855 nM and 421 nM; TGI [3]: 330 nM; TGI [4]: 601 nM; GI50 [5]: 16.1 nM; TGI [5]: 394 nM and 143 nM; TGI [6]: 1000 nM and 1690 nM; GI50 [7]: 71.2 nM and 13.9 nM; TGI [7]: 637 nM and 382 nM; GI50 [8]: 171 nM and 34 nM; TGI [8]: 721 nM and 383 nM; TGI [9]: 578 nM and 139 nM; GI50 [10]: 145 nM; TGI [10]: 168 nM and 307 nM; GI50 [11]: 263 nM; TGI [11]: 950 nM and 778 nM; TGI [12]: 741 nM; TGI [13]: 695 nM; TGI [14]: 725 nM; TGI [15]: 1550 nM; GI50 [16]: 119 nM; TGI [16]: 1180 nM and 495 nM
